The source of these data is patent publication US4062948A, “Dihydromocimycin antibiotics” (Gist-Brocades N.V., priority 1970, dated 1977).

Converted amounts (≈) assume the structure as drawn.

One data set has as its system Treponema. Description: treatment of pigs from a farm with pigs scour, Treponema-positive (Example VII). In kind it is in vivo. Here is the method:
Pigs, from a farm where problems with pigs scour had existed for some time, were treated under the supervision of the local veterinary surgeon and the inspector of the Health Service Station. The pigs were divided into groups and treated for 4 days in the following manner.
Group 1: 66 pigs were treated with feed containing 100 ppm of tylosin;
Group 2: 34 pigs were treated with feed containing 25 ppm of dihydromocimycin;
Group 3: 40 pigs were treated with feed containing 50 ppm of dihydromocimycin; and
Group 4: 40 pigs were treated with feed containing 100 ppm of dihydromocimycin.
Before the treatment, all animals lost thin or very thin faeces. Samples thereof were investigated and found to be Treponema-positive, and Salmonella-negative. Sometimes worm eggs were found.

The subject of the next data set is rats. The data set is described as follows: three-month oral toxicity in rats. In kind it is in vivo. The following applies: up to 0.1% in the diet, three months. The text has this: The toxicity of the antibiotic has been studied in various animals.
The test system of data set [1] is Bacillus subtilis ATCC 6633. Description: micro liquid serial dilution test (Table II). In kind it is cell-based. The settings on record: ATCC6633, 18 hours at 30° C or 37° C, read-out: Minimum inhibitory concentration. On the procedure:
(§1) The microbiological activity of the antibiotic preparation towards a number of micoorganisms has been determined by a micro liquid serial dilution test:
(§2) A stock solution of the test compounds at a concentration of 200 μg/ml in 0.05 molar phosphate buffer at a pH of 6.5 was prepared and serial 1:1 dilutions were made with a liquid medium inoculated with the test organism, using conventional glass spot-test plates. The plates were incubated 18 hours at 30° C or 37° C. The minimum inhibitory concentration (MIC) which is the smallest concentration of compound completely inhibiting the growth of the test organism is read and calculated in μg/ml.

Data set [2] concerns Mycoplasma hyorhinus A 2230. Description: micro liquid serial dilution test (Table II). Type of data set: cell-based. The following applies: A2230, 18 hours at 30° C or 37° C, read-out: Minimum inhibitory concentration. Here is the method:
as §1, §2

For data set [3], the system named is Pseudomonas aeruginosa L 94. Description: micro liquid serial dilution test (Table II). Type of data set: cell-based. The following applies: L94, 18 hours at 30° C or 37° C, read-out: Minimum inhibitory concentration. On the procedure: as §1, §2
For data set [4], the system named is Streptococcus disgalactiae A 730. Description: micro liquid serial dilution test (Table II). Type of data set: cell-based. The settings on record: A730, 18 hours at 30° C or 37° C, read-out: Minimum inhibitory concentration. On the procedure: as §1, §2
Data set [5] concerns Pasteurella multocida A 723. Description: micro liquid serial dilution test (Table II). Type of data set: cell-based. The following applies: A723, 18 hours at 30° C or 37° C, read-out: Minimum inhibitory concentration. On the procedure:
as §1, §2

For data set [6], the system named is Saccharomyces cerevisiae D 160. The data set is described as follows: micro liquid serial dilution test (Table II). The following applies: D160, 18 hours at 30° C or 37° C, read-out: Minimum inhibitory concentration. In kind it is cell-based. Here is the method:
as §1, §2

A further data set relates to Salmonella dublin P 43. Description: micro liquid serial dilution test (Table II). Type of data set: cell-based. The following applies: Salmonella enterica, P43; 18 hours at 30° C or 37° C; read-out: Minimum inhibitory concentration. Here is the method:
as §1, §2

In data set [7] the test system is Torulopsis glabrata A 420. The data set is described as follows: micro liquid serial dilution test (Table II). The settings on record: Nakaseomyces glabratus, A420; 18 hours at 30° C or 37° C; read-out: Minimum inhibitory concentration. In kind it is cell-based. Here is the method: as §1, §2
In a further data set the test system is Micrococcus flavus A 54. Description: micro liquid serial dilution test (Table II). In kind it is cell-based. The settings on record: A54, 18 hours at 30° C or 37° C, read-out: Minimum inhibitory concentration. Here is the method:
as §1, §2

For data set [8], the system named is Candida parapsilosis A 952. The data set is described as follows: micro liquid serial dilution test (Table II). Type of data set: cell-based. The following applies: Lodderomyces parapsilosis, A952; 18 hours at 30° C or 37° C; read-out: Minimum inhibitory concentration. Here is the method: as §1, §2
Data set [9] relates to Lactobacillus acidophilus D 218. The data set is described as follows: micro liquid serial dilution test (Table II). In kind it is cell-based. The following applies: D218, 18 hours at 30° C or 37° C, read-out: Minimum inhibitory concentration. Here is the method: as §1, §2
Data set [10] deals with Streptococcus haemolyticus A 266. The data set is described as follows: micro liquid serial dilution test (Table II). Type of data set: cell-based. The following applies: A266, 18 hours at 30° C or 37° C, read-out: Minimum inhibitory concentration. On the procedure:
as §1, §2

The test system of data set [11] is Trichophyton mentagrophytes R 177. Description: micro liquid serial dilution test (Table II). Type of data set: cell-based. The following applies: R177, 18 hours at 30° C or 37° C, read-out: Minimum inhibitory concentration. Here is the method:
as §1, §2

Data set [12] deals with Bacillus cereus ATCC 9139. Description: micro liquid serial dilution test (Table II). Type of data set: cell-based. The settings on record: ATCC9139, 18 hours at 30° C or 37° C, read-out: Minimum inhibitory concentration. On the procedure:
as §1, §2

Data set [13] relates to Diplococcus pneumoniae A 188. Description: micro liquid serial dilution test (Table II). In kind it is cell-based. The settings on record: Streptococcus pneumoniae, A188; 18 hours at 30° C or 37° C; read-out: Minimum inhibitory concentration. Here is the method: as §1, §2
Data set [14] relates to Haemophilus influenzae A 773. Description: micro liquid serial dilution test (Table II). In kind it is cell-based. The settings on record: A773, 18 hours at 30° C or 37° C, read-out: Minimum inhibitory concentration. On the procedure: as §1, §2
Data set [15] deals with Staphylococcus aureus A 55 (ATCC 65388). The data set is described as follows: micro liquid serial dilution test (Table II). In kind it is cell-based. The settings on record: ATCC65388, 18 h, read-out: Minimum inhibitory concentration. Here is the method:
as §1, §2

Data set [16] deals with Mycoplasma synoviae A 2082. The data set is described as follows: micro liquid serial dilution test (Table II). The settings on record: Mycoplasmopsis synoviae, A2082; 18 hours at 30° C or 37° C; read-out: Minimum inhibitory concentration. In kind it is cell-based. Here is the method: as §1, §2
In a further data set the test system is Erwinia caretovora W 9. Description: micro liquid serial dilution test (Table II). Type of data set: cell-based. The following applies: W9, 18 hours at 30° C or 37° C, read-out: Minimum inhibitory concentration. Here is the method:
as §1, §2

In a further data set the test system is Vibrio coli 1846. The data set is described as follows: micro liquid serial dilution test (Table II). The settings on record: Campylobacter coli, 18 hours at 30° C or 37° C, read-out: Minimum inhibitory concentration. In kind it is cell-based. Here is the method: as §1, §2
In data set [17] the test system is Staphylococcus aureus A 355. The data set is described as follows: micro liquid serial dilution test (Table II). The following applies: A355, 18 hours at 30° C or 37° C, penicillinase-producer, read-out: Minimum inhibitory concentration. In kind it is cell-based. On the procedure:
as §1, §2
(§3) wherein ') indicates penicillinase-producer; ") indicates recently isolated hospital strain.

A further data set has as its system Proteus morganii 2241. The data set is described as follows: micro liquid serial dilution test (Table II). In kind it is cell-based. The settings on record: Morganella morganii, 18 hours at 30° C or 37° C, recently isolated hospital strain, read-out: Minimum inhibitory concentration. On the procedure: as §1, §2, §3
Data set [18] has as its system Pseudomonas aeruginosa 2396. The data set is described as follows: micro liquid serial dilution test (Table II). The settings on record: 18 hours at 30° C or 37° C, recently isolated hospital strain, read-out: Minimum inhibitory concentration. In kind it is cell-based. Here is the method:
as §1, §2, §3

The subject of data set [19] is Staphylococcus aureus L 160a. The data set is described as follows: micro liquid serial dilution test (Table II). The following applies: 18 h, read-out: Minimum inhibitory concentration. Type of data set: cell-based. Here is the method: as §1, §2, §3

`CC=CC=CC1OC(O)(C(CC)C(=O)NCC=CC=C(C)C(OC)C(C)C2OC(C=CC=CC=C(C)C(=O)C3=C(O)CCNC3=O)C(O)C2O)C(O)C(O)C1(C)C` (stereo not shown) [dihydromocimycin]: the “liveliness of treated animals” value with Treponema (25-100 ppm in feed) was “much more lively than before the treatment”. Also, in the data set on Treponema (25 ppm dihydromocimycin vs 100 ppm tylosin), the “curing of Treponema dysentery, compared with tylosin” value is given as “better than a dosage of 100 ppm of tylosin”. Further, the time to cure entry in the data set on Treponema (dihydromocimycin 25 ppm in feed (group 2)) is “cured in periods lying between those of groups 1 and 4”; in the data set on Treponema (dihydromocimycin 50 ppm in feed (group 3)) it was “cured in periods lying between those of groups 1 and 4”. Also, the faeces result in the data set with Treponema (dihydromocimycin 100 ppm in feed, one day after the start of treatment) is “normal”. In addition, the aversion to feed entry with Treponema (feed containing dihydromocimycin) is on record as “not averse to feed containing dihydromocimycin”.

On to `CC=CC=CC1OC(O)(C(CC)C(=O)NCC=CC=C(C)C(OC)C(C)C2OC(C=CC=CC=C(C)C(=O)c3c(O)cc[nH]c3=O)C(O)C2O)C(O)C(O)C1(C)C` (stereo not shown) [mocimycin], for which the undesired pharmacological effect entry in the data set with rats is on record as “does not result in any undesired pharmacological effect”. In addition, the MIC in data set [1] is 50 µg/mL (≈ 62.7 µM); in data set [2] it was 3 µg/mL (≈ 3.76 µM); in data set [3] it was greater than 100 µg/mL; in [4] it was 0.6 µg/mL (≈ 0.753 µM); in data set [5] it was 4 µg/mL (≈ 5.02 µM); in data set [6], greater than 100 µg/mL. In addition, the MIC in the data set on Salmonella dublin P 43 was greater than 100 µg/mL; in [7], greater than 100 µg/mL; in the data set with Micrococcus flavus A 54, 4 µg/mL (≈ 5.02 µM); in [8], greater than 100 µg/mL; in [9], greater than 100 µg/mL; in [10], 2 µg/mL (≈ 2.51 µM). For the same compound, the MIC was greater than 100 µg/mL in data set [11]; 0.3 µg/mL (≈ 0.376 µM) in data set [12]; 1 µg/mL (≈ 1.25 µM) in data set [13]; 2 µg/mL (≈ 2.51 µM) in data set [14]; 100 µg/mL (≈ 125 µM) in data set [15]; 1 µg/mL (≈ 1.25 µM) in data set [16]. In addition, the MIC in the data set with Erwinia caretovora W 9 is 6 µg/mL (≈ 7.53 µM); in the data set with Vibrio coli 1846, 100 µg/mL (≈ 125 µM); in [17] it was 100 µg/mL (≈ 125 µM); with Proteus morganii 2241, 100 µg/mL (≈ 125 µM); in data set [18] it was greater than 100 µg/mL; in data set [19], greater than 200 µg/mL.
